1 compound from PMC9837035 (Nature Communications, 2023) can be followed below.

The subject of the assay is H3K9me2 on the β-globin locus. The assay can be described thus: ChIP-seq for H3K9me2 in HUDEP-2 cells. In kind it is cell-based, human. Conditions: HUDEP-2, 1 μM, 4 days. How it is done:
A total of 0.5–1 × 10^6 cells were cross-linked with 1% formaldehyde for 10 min at room temperature and the reaction was quenched with 250 mM glycine. Cross-linked cells were then lysed with buffer 1 (15 mM Tris-HCl (pH 7.5), 60 mM KCl, 15 mM NaCl, 5 mM MgCl2, 0.1 mM EGTA, 300 mM sucrose, […], 1 mM phenylmethanesulfonyl fluoride (PMSF), 0.5% NP40) and incubated on ice for 10 min. After centrifugation, the pellet was re-suspended in buffer 2 (15 mM Tris-HCl (pH 7.5), 60 mM KCl, 15 mM NaCl, 5 mM MgCl2, 0.1 mM EGTA, 1.2 M sucrose, […], 1 mM PMSF). After centrifugation, the pellet was then re-suspended in MNase buffer (50 mM Tris-HCl (pH 7.5), 1 mM CaCl2, 4 mM MgCl2, 320 mM sucrose, 1 mM PMSF) and digested with 100 U of micrococcal nuclease (Takara) at 37 °C for 15 min. […] The samples were analyzed by qPCR. […] ChIP-seq analysis were analyzed Cutadapt (V1.9.1) for QC, FastQC (V0.10.1) for QC assessment, Bowtie (V2.1.0) for mapping, strand cross-correlation (SCC) for ChIP quality assessment, MACS2 for peak calling, and R package ChIPpeakAnno for Peak annotated.

Structures are written as SMILES.

In the case of `Cc1c(C(=O)NC(CCC2CC2)C(=O)Nc2ccc(C#N)cc2)[nH]c2c1C(=O)CC(C)(C)C2` (stereo not shown) [RK-701], the “occupancies of H3K9me2 throughout the β-globin gene locus” value is “reduced”.
